From patent EP0007019A1, “5-Phenyl-pyrazole derivatives and their salts, processes for their preparation and medicines containing them” (Kali-Chemie Pharma GmbH, priority 1978, dated 1980) come the findings set out here.

Format in all cases: in vivo
Data set [1] deals with NMRI-Maus. As to the kind of experiment: Acute 7-day toxicity after a single administration (LD50, probit analysis). To be noted: for Toxizität: statement in words, test not specified. The source says: (§1) Die akute 7-Tage-Toxizität wurde nach einmaliger Applikation an der weißen, nüchternen NMRI-Maus bestimmt.
In data set [2] the test system is Versuchstieren. Nature of the data set: PCA test (passive cutaneous anaphylaxis reaction), peroral. An excerpt: Die neuen Verbindungen eignen sich insbesondere aufgrund ihrer oralen antianaphylaktischen Wirksamkeit zur Behandlung von allergischen Reaktionen.
A short description of data set [3]: Acute 7-day toxicity after a single administration (LD50, probit analysis). To be noted: in vivo, single administration, fasted NMRI mouse, 7 days.
Source text: as §1

Data set [4] deals with Sprague-Dawley-Ratten mit diätetischer Hyperlipidämie. Nature of the data set: Lipid-lowering effect in rats with dietary hyperlipidaemia, 4 weeks p.o., compared with Clofibrat; liver weight. The following applies: for Serum Gesamt-Cholesterin / Serum Triglyceride / Lebergewicht: 4 Wochen; for Serum Gesamt-Cholesterin: 20 animals per group, Kontrolle 15,2 ± 2,4; for Serum Triglyceride: Kontrolle 1,04 ± 0,34; for Lebergewicht: Kontrolle 7,3 ± 0,7. The protocol: Die Testsubstanz wurde über einen Zeitraum von 4 Wochen in Dosierungen von 100 und 200 mg/kg Körpergewicht p.o. täglich per Magensonde in 10 ml einer 1%-igen Traganth-Lösung verabreicht. Clofibrat wurde entsprechend in Dosierungen von 100 und 200 mg/kg gegeben. Die Kontrolltiere erhielten 10 ml der Trägerflüssigkeit Traganth/kg Körpergewicht per Magensonde.
Jede Gruppe bestand aus 20 Tieren; das Gewicht der Leber wurde festgestellt und verglichen.
Die Blutentnahme erfolgte im Ätherrausch aus dem retrobulbären Venenplexus.
Ausgeführt wurden Varianzanalyse und Student-t-Test. Als Signifikanzgrenze diente p≤0,01.

The test system of data set [5] is unbehandelten Ratte. As to the kind of experiment: Determination of triglyceride lowering in the untreated rat over 4 days. To be noted: po, 96 h, 200 mg/kg per Magensonde, 4 Tage, serum triglycerides, percent versus control, 10 animals per group, read-out: Triglyceridsenkung in %. The protocol:
Die Verbindungen wurden auf triglyceridsenkende Eigenschaften an der unbehandelten Ratte über einen Zeitraum von 4 Tagen untersucht. Die Substanzen wurden in der Dosierung von 200 mg/kg per Magensonde in 5 ml 1%-iger Traganth-Lösung appliziert. Die Blutentnahme erfolgte im Ätherrausch aus dem retrobulbären Venenplexus. Die Serumtriglyceride wurden nach Eggstein und Kreutz (Klin. Wschr. 44, 262 (1966)) bestimmt. Jede Gruppe bestand aus 10 Tieren. Die statistische Prüfung erfolgte nach dem Student-t-Test. Als Signifikanzgrenze diente p ≤0,01.
Die Triglyceridsenkung durch die untersuchten Substanzen in Prozent gegenüber der Kontrolle ist der Tabelle 2 zu entnehmen.

Where [6] appears, read: 100 mg/kg p.o. täglich, mean ± spread.

Read-outs that look alike come from different tables or passages of the source.

In data set [1] (i.p., single administration, fasted NMRI mouse, 7 days), “1,5-Diphenyl-3-(2-äthoxycarbonylpropyl-2-oxy)-pyrazol [Beispiel 1]” displayed an LD50 i.p. of 684 mg/kg. The LD50 p.o. in data set [1] (p.o., single administration, fasted NMRI mouse, 7 days) was greater than 1470 mg/kg.

As for `CC(C)(Oc1cc(-c2ccc(Cl)cc2)[nH]n1)C(=O)O` [5-(4-Chlorphenyl)-3-(2-hydroxycarbonylpropyl-2-oxy)-pyrazol], the Toxizität entry in data set [1] is reported as “geringer Toxizität”. Besides, the “perorale antianaphylaktische Wirksamkeit” value in data set [2] was “ausgeprägte perorale antianaphylaktische Wirksamkeit”.

With `CC(C)(Oc1cc(-c2ccccc2)[nH]n1)C(=O)O` [5-Phenyl-3-(2-hydroxycarbonylpropyl-2-oxy)-pyrazol], in data set [1], the Toxizität result is “geringer Toxizität”. Besides, the “perorale antianaphylaktische Wirksamkeit” value in data set [2] was “ausgeprägte perorale antianaphylaktische Wirksamkeit”.

Usually LD50 stands for the dose at which mortality reaches 50%. As for `CCOC(=O)C(C)(C)Oc1ccc(Cl)cc1` [Clofibrat, a-(p-Chlorphenoxy)-a-methyl-propionsäureäthylester, reference compound], the LD50 at 168 h was 566 mg/kg in data set [3] (ip, read-out: LD50 i.p.) and greater than 1470 mg/kg in data set [3] (po, read-out: LD50 p.o.). Also, the figures for the “Serum Gesamt-Cholesterin” value in data set [4] (setting [6]) and in data set [4] (200 mg/kg p.o. täglich) were 6,9 ± 2,1 mmol/l and 5,9 ± 1,7 mmol/l, respectively. The entries for the “Serum Triglyceride” value in data set [4] (100 mg/kg p.o. täglich) and in data set [4] (200 mg/kg p.o. täglich) were 0,90 ± 0,16 mmol/l and 0,86 ± 0,66 mmol/l, respectively. The Lebergewicht in data set [4] (100 mg/kg p.o. täglich) is listed as 8,2 ± 0,9 g/100 g; in data set [4] (200 mg/kg p.o. täglich), 8,2 ± 0,7 g/100 g.

As for `CC(C)(Oc1cc(-c2ccccc2)n(-c2ccccc2)n1)C(N)=O` [Substanz A, 1,5-Diphenyl-3-(2-aminocarbonylpropyl-2-oxy)-pyrazol], the LD50 at 168 h was 571 mg/kg in data set [3] (ip, read-out: LD50 i.p.) and greater than 1470 mg/kg in data set [3] (po, read-out: LD50 p.o.). Moreover, the “Serum Gesamt-Cholesterin” value is given as 6,8 ± 2,4 mmol/l in data set [4] (setting [6]) and 5,5 ± 1,4 mmol/l in data set [4] (200 mg/kg p.o. täglich). Also, the “Serum Triglyceride” value in data set [4] (100 mg/kg p.o. täglich) is 0,83 ± 0,20 mmol/l; in data set [4] (200 mg/kg p.o. täglich), 0,70 ± 0,16 mmol/l. In addition, the Lebergewicht in data set [4] (100 mg/kg p.o. täglich) is 7,2 ± 0,6 g/100 g; in data set [4] (200 mg/kg p.o. täglich), 7,4 ± 0,7 g/100 g. The “Veränderungen der Leber (Zunahme des Lebergewichtes, Leberzellvergrößerung)” value in data set [4] (4 Wochen p.o., 100 and 200 mg/kg) is recorded as “keinerlei Veränderungen der Leber”.

`CC(C)(Oc1cc(-c2ccccc2)[nH]n1)C(N)=O` [Substanz Nr. 1, 5-Phenyl-3-(2-aminocarbonylpropyl-2-oxy)-pyrazol]: the inhibition in vivo at 200 mg/kg in data set [5] amounted to 15%.

`CC(C)(Oc1cc(-c2ccc(Cl)cc2)n(-c2ccccc2)n1)C(N)=O` [Substanz Nr. 2, 1-Phenyl-5-(4-chlorphenyl)-3-(2-aminocarbonyl-propyl-2-oxy)-pyrazol]: the LD50 at 168 h in data set [3] (ip, read-out: LD50 i.p.) was greater than 100 mg/kg; in data set [3] (po, read-out: LD50 p.o.), greater than 1470 mg/kg. Moreover, in data set [5], the inhibition in vivo at 200 mg/kg turned out to be 20%.

For `CC(C)(Oc1cc(-c2cccc(Cl)c2)n(-c2ccccc2)n1)C(N)=O` [Substanz Nr. 3, 1-Phenyl-5-(3-chlorphenyl)-3-(2-aminocarbonyl-propyl-2-oxy)-pyrazol], the inhibition in vivo at 200 mg/kg in data set [5] is 30%.

As for `CC(C)(Oc1cc(-c2ccc(Cl)cc2)[nH]n1)C(N)=O` [Substanz Nr. 4, 5-(4-Chlorphenyl)-3-(2-aminocarbonylpropyl-2-oxy)-pyrazol], the inhibition in vivo at 200 mg/kg in data set [5] came to 15%.

On to `CC(C)(Oc1cc(-c2ccc(Cl)cc2)n(Cc2ccccc2)n1)C(N)=O` [Substanz Nr. 5, 1-Benzyl-5-(4-chlorphenyl)-3-(2-aminocarbonyl-propyl-2-oxy)-pyrazol], for which, in data set [5], the inhibition in vivo at 200 mg/kg came to 15%.

As to `CCOC(=O)C(C)(C)Oc1cc(-c2ccc(Cl)cc2)n(-c2ccccc2)n1` [Substanz Nr. 6, 1-Phenyl-5-(4-chlorphenyl)-3-(2-äthoxycarbonyl-propyl-2-oxy)-pyrazol], the inhibition in vivo at 200 mg/kg in data set [5] came out at 20%.

As for `CCOC(=O)C(C)(C)Oc1cc(-c2ccccc2)[nH]n1` [Substanz Nr. 7, 5-Phenyl-3-(2-äthoxycarbonylpropyl-2-oxy)-pyrazol], the inhibition in vivo at 200 mg/kg in data set [5] came to 25%.

Regarding `CC(C)(Oc1cc(-c2ccccc2)n(-c2ccccc2)n1)C(=O)O` [Substanz Nr. 8, 1,5-Diphenyl-3-(2-hydroxycarbonylpropyl-2-oxy)-pyrazol], the inhibition in vivo at 200 mg/kg in data set [5] was determined as 30%.
